Read-outs that look alike come from different tables or passages of the source.
Legend:
SARS-CoV-2 [1] = test: Live virus-based microneutralization (MN) assay, SARS-CoV-2-induced CPE in Vero E6 cells; type: cell-based; set-up: key to SARS-CoV-2 induced CPE in Vero E6 cells: Cytotoxicity; ND: Both cytotoxicity and CPE are not detected.; SARS-CoV-2 induced CPE; settings: for SARS-CoV-2 induced CPE in Vero E6 cells: Repeat 1 and 2
SARS-CoV-2 [2] = type: cell-based; set-up: key: Cytotoxicity; ND: Both cytotoxicity and CPE are not detected.; SARS-CoV-2 induced CPE; settings: Repeat 1 and 2
[3] = mice, dose as high as 300 mg/kg/day; cited from earlier work
[4] = patients, state Cmax; cited from earlier work
M^Pro = M^Pro (Severe acute respiratory syndrome coronavirus 2, UniProt P0DTD1); type: biochemical

With CC(C)COCC(CN(Cc1ccccc1)c1ccccc1)N1CCCC1 (stereo not drawn) [Bepridil] the “SARS-CoV-2 induced CPE in Vero E6 cells” value (SARS-CoV-2 [1]; bepridil 0.16 μM) was “CPE”, the “SARS-CoV-2 induced CPE in Vero E6 cells” value (SARS-CoV-2 [1]; bepridil 0.31 μM) was “CPE” and the “SARS-CoV-2 induced CPE in Vero E6 cells” value (SARS-CoV-2 [1]; bepridil 0.62 μM) was “CPE”. For the same compound, the “SARS-CoV-2 induced CPE in Vero E6 cells” value (SARS-CoV-2 [1]; bepridil 1.25 μM) was “CPE”, the “SARS-CoV-2 induced CPE in Vero E6 cells” value (SARS-CoV-2 [1]; bepridil 2.5 μM) was “CPE” and the “SARS-CoV-2 induced CPE in Vero E6 cells” value (SARS-CoV-2 [1]; bepridil 50 μM) was “C”. The “SARS-CoV-2 induced CPE in Vero E6 cells” value (SARS-CoV-2 [1]; bepridil 100 μM) was “C”, the “SARS-CoV-2 induced CPE in Vero E6 cells” value (SARS-CoV-2 [1]; bepridil 200 μM) was “C^a and C” and the “SARS-CoV-2 induced CPE in ACE2-expressing A549 cells” value (SARS-CoV-2 [2]; bepridil 1.56 μM) was “CPE”. For the same compound, the “SARS-CoV-2 induced CPE in ACE2-expressing A549 cells” value (SARS-CoV-2 [2]; bepridil 3.12 μM) was “CPE”, the “mating behavior and reproductive performance” value [3] was “did not show alteration in mating behavior and reproductive performance” and the Cmax [4] was 3.72 µM.
For CC(C)(C)c1ccc(C(=O)CCCN2CCC(OC(c3ccccc3)c3ccccc3)CC2)cc1 [Ebastine], the “Cytopathogenic effect (CPE)” value (SARS-CoV-2 [1]) was “observed”.
In the case of Cc1cccc(C)c1OCC(=O)N[C@@H](Cc1ccccc1)[C@@H](O)C[C@H](Cc1ccccc1)NC(=O)[C@H](C(C)C)N1CCCNC1=O [Lopinavir], the IC50 (M^Pro; 50 nM M^Pro, 10 μM Sub3, mean ± SE, triplicate) is reported as 486 ± 2 µM, the “Hill Slope” value (M^Pro; Hill coefficient of IC50 curve, four-parameter fit) is reported as 29.9 ± 2.4 and the “Hill Slope” value (M^Pro; Hill coefficient of IC50 curve, four-parameter fit, listed as lopinavir) is reported as “lowest Hill coefficients”.
For O=c1[nH]c2ccccc2n1C1CCN(CCCC(c2ccc(F)cc2)c2ccc(F)cc2)CC1 [Pimozide], the “Cytopathogenic effect (CPE)” value (SARS-CoV-2 [1]; Vero E6 cells, all tested concentrations, 0.16 to 200 μM) was “observed”.
In the case of CCOC(=O)/C=C/[C@H](C[C@@H]1CCNC1=O)NC(=O)[C@@H](CC(=O)[C@@H](NC(=O)c1cc(C)on1)C(C)C)Cc1ccc(F)cc1 [Rupintrivir], the “Hill Slope” value (M^Pro) is reported as 1.4 ± 0.2.

From patent US11806332B2, “Compositions and methods for inhibition of SARS-CoV-2 viral infections” (priority 2020, dated 2023)
